# Measured values from paper PMC10808224, “Lsr2 acts as a cyclic di-GMP receptor that promotes keto-mycolic acid synthesis and biofilm formation in mycobacteria” (Nature Communications, 2024).
# Target: T1, Lsr2Msm (Mycolicibacterium smegmatis, UniProt A0R576)
# T1 construct: gene MSMEG_6092; recombinant, E. coli BL21 (DE3), modified pET28a, C-terminal His-tag, Ni-NTA purified
# Assay: isothermal titration calorimetry
# Format: binding
structure (smiles),measurement,value
Nc1nc2c(ncn2[C@@H]2O[C@@H]3CO[P@](=O)(O)O[C@H]4[C@@H](O)[C@H](n5cnc6c(=O)[nH]c(N)nc65)O[C@@H]4CO[P@](=O)(O)O[C@H]3[C@H]2O)c(=O)[nH]1 [c-di-GMP],Kd,0.0964 µM
